Assay results taken from US20050181034A1, “Formulation of liposomal derivatives of phenylalanine” (WILEX AG, priority 2002, published 2005).
Where two headings read alike, the source gives them in different places.

Columns and labels:
[1] = Concentration in plasma, bile and organs after s.c. administration in rats; format: in vivo; conditions: rat; for concentration at 24 h: female, Wistar, sc
Description: (§1) Female wistar rats, 240-300 g body weight (Charles River-Wiga, Sulzfeld), were treated with the active ingredient WX-UK1 in the form of an aqueous solution or with the liposomal formulations 1-4 described in Example 1. The animals each received 1 dose/day over a period of 10 days. The administrations took place in the region of the flank (between shoulder and rear limbs) so that the animals were unable to reach the injection site with their paws. The injection sites were approx. 1 cm apart, no site being injected more than once. The first five injections took place on the left side, and the second five injections on the right side. The dose was usually 3 mg of active ingredient/kg of body weight, i.e. 0.9 mg of active ingredient was administered for an average body weight of 300 g. Radiolabeled active ingredient (3H-WX-UK1) was administered in some cases.
(§2) 24 h after the last injection, the animals were anaesthetized (ethylurethane, 1.4 g/kg i.p.), and citrated blood was obtained from the retroorbital venous plexus; citrated plasma was obtained by centrifugation at 1200×g for 10 min. The bile duct was then dissected, and bile was obtained for 15 min. Subsequently, the areas of skin at the injection sites were examined and the growth findings on dissection were recorded.
The animals were then sacrificed, and various organs (heart, kidney, liver, spleen) were dissected. The active ingredient content in the plasma, bile and organs was determined by HPLC [standard method using Nucleosil 7 C18 columns (Macherey-Nagel, Düren), acetonitrile/water/perchloric acid 30/70/0.04, 1 ml/min] after prepurification using Chromabond C18 solid-phase extraction columns (Macherey-Nagel, Duren). When ^3H-WX-UK1 was used, the active ingredient concentration was determined immediately after lyophilization of the samples by measuring the radioactivity in a liquid scintillation counter.

[2] = Tolerability of s.c. administration in rats (behavior, palpation, dissection, histology scores); format: in vivo; set-up: key to Behavior of the animals (score): 0: normal; slight scratching in 1st hour; 2: scratching and signs of pain; 3: still marked impairment after 2 h; key to Palpation consecutive (score): 0: unremarkable; 1: slight, isolated thickenings/indurations; 2: persistent thickenings/indurations, coalescing; 3: additional lesions, inflammations; conditions: rat
Description: as §1
The animals were weighed before each injection and observed for 2 h after each injection, and before each further injection the previous injection sites were palpated. The behavior of the animals and the palpation findings were recorded.
The following score was used to evaluate the observed impairments:
Behavior of the animals after the injection (2 h)
Consecutive Palpation Findings
as §2
The following score was used to evaluate the growth changes observed:
Final Observations, Growth Findings during Dissection
Skin samples were dissected from the regions of the injections, fixed in formalin and examined histologically (hematoxylin/eosin stain). The following score was used to evaluate the histologically visible changes: […]

[3] = s.c. 3 mg/kg 1 dose/day 10 days, 24 h after last injection, single experiment, listed as Control, 3 mg/kg

For CCOC(=O)N1CCN(C(=O)[C@H](Cc2cccc(C(=N)N)c2)NS(=O)(=O)c2c(C(C)C)cc(C(C)C)cc2C(C)C)CC1 [WX-UK1, Nα-(2,4,6-triisopropylphenylsulfonyl)-3-amidino-(L)-phenylalanine 4-ethoxycarbonylpiperazide], the concentration at 24 h ([1]; bile, 3 mg/kg, s.c. 3 mg/kg 1 dose/day 10 days, 24 h after last injection, single experiment, read-out: Concentration Bile) was 3100 ng/mL, the concentration at 24 h ([1]; heart, 3 mg/kg, s.c. 3 mg/kg 1 dose/day 10 days, 24 h after last injection, single experiment, read-out: Organ content Heart) was 840 ng/g and the concentration at 24 h ([1]; kidney, 3 mg/kg, s.c. 3 mg/kg 1 dose/day 10 days, 24 h after last injection, single experiment, read-out: Organ content Kidney) was 2300 ng/g. The concentration at 24 h ([1]; liver, 3 mg/kg, s.c. 3 mg/kg 1 dose/day 10 days, 24 h after last injection, single experiment, read-out: Organ content Liver) was 180 ng/g, the concentration at 24 h ([1]; plasma, 3 mg/kg, s.c. 3 mg/kg 1 dose/day 10 days, 24 h after last injection, single experiment, read-out: Concentration Plasma) was < 50 ng/mL and the concentration at 24 h ([1]; spleen, 3 mg/kg, s.c. 3 mg/kg 1 dose/day 10 days, 24 h after last injection, single experiment, read-out: Organ content Spleen) was 690 ng/g. The “Organ content Heart” value [1, 3] was 1.0 µg/g, the “Organ content Kidney” value [1, 3] was 2.5 µg/g and the “Organ content Liver” value [1, 3] was 0.36 µg/g. The “Organ content Spleen” value [1, 3] was 0.65 µg/g, the “Concentration in the plasma” value ([1]; s.c., determined only by using 3H-WX-UK1) was < 100 ng/mL and the “Behavior of the animals (score)” value ([2]; 2 h after s.c. injection) was 1. The “Impression final (score, findings during dissection)” value ([2]; 24 h after last injection) was 2.5, the “Skin histology (FIG. 1, FIG. 3, magnification 25x)” value ([2]; after s.c. administration) was “strong inflammatory reaction” and the “Palpation consecutive (score)” value ([2]; previous s.c. injection sites) was 1. The “Score (total impairment), Mean” value ([2]; s.c., mean of the two experiments) was “Mean = 7.5” and the “Score (total impairment of the animals)” value ([2]; s.c., sum of the part scores) was 7.5.
